Experimental data reported in patent US20220289668A1 (PHARMALEADS, priority 2019, published 2022).

Assays:
[1] = target: T1, Neprilysin (NEP), purified from rabbit kidney (Oryctolagus cuniculus, UniProt P08049); assay: Neprilysin (NEP) assay, fluorigenic substrate Dansyl-Gly-(NO2)Phe-β-Ala; format: biochemical; details: rabbit kidney NEP 200 ng/mL, substrate 20 μM, 50 mM Tris pH 7.4, 37° C.; read-out: NEP (nM), inhibitory power Ki
T1 construct: Neprilysin, purified from rabbit kidney; from tissue; host or cells: rabbit kidney
T1 sequence (P08049 1-750): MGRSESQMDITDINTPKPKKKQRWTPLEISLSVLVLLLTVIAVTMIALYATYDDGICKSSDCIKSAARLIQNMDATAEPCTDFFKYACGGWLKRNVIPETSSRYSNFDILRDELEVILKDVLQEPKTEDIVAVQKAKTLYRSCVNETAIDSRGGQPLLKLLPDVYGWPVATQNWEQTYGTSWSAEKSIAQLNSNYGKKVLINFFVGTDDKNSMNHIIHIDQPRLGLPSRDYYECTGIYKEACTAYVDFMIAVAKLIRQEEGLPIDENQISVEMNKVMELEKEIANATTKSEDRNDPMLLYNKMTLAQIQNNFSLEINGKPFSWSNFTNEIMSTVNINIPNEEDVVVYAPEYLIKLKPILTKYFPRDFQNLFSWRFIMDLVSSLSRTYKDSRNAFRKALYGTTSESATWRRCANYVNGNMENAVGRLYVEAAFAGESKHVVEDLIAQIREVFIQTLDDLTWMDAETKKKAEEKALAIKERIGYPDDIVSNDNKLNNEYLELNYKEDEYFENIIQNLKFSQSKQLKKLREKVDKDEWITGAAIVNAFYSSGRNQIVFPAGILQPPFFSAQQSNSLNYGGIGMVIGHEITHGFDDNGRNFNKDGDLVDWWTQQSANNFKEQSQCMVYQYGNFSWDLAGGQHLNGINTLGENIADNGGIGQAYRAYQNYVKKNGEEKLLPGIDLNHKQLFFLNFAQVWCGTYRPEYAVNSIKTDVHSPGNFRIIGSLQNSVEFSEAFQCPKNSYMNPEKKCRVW
Procedure: (§1) The claimed inhibitors were tested on different Zn^2+ peptidases representative of this family of enzymes, capable of inhibiting them, such as type 1 neprilysin (E.C.3.4.24.11, NEP-1), neutral aminopeptidase (E.C.3.4.11.2, APN) and LTA4H.
(§2) The assays are carried out on […] in the presence of fluorigenic substrates specific for each enzyme.
(§3) Generally speaking, the inhibitors are pre-incubated, in increasing concentrations, with the enzyme for 10 min, at 37° C. The substrate is then added and the mixture is incubated for 30 to 60 min at 37° C. The reaction is stopped at 4° C. and the reading of the fluorescence emitted is done by reading the Berthold Twinkle LS970B plate. An inhibition curve is then plotted as a function of the concentration of inhibitor using GraphPad software, then the Ki is determined from the Cheng Prusoff formula: Ki=IC50/(1+(S/Km)).
Neprilysin, purified from rabbit kidney (Aubry M et al. (1987), Biochem Cell Biol 65, 398-404), is used at final 200 ng/mL in 50 mM Tris buffer pH 7.4. The substrate, Dansyl-Gly-(NO2)Phe-β-Ala (Goudreau N et al. (1994), Anal Biochem, 219, 87-95) (Km=37 μM), is dissolved in ethanol and is used at final 20 μM. Increasing concentrations (from 10^−10 to 10^−3 M) of inhibitors are pre-incubated for 15 min at 37° C. with NEP in 50 mM Tris buffer, pH 7.4. The substrate is next added and the incubation is continued for 60 min. The reaction is stopped by placing the plate in ice for 10 min. The reading of the fluorescence emitted is carried out in a fluorimeter at λex=355 nm, λem=535 nm.

[2] = target: T2, aminopeptidase N (APN), recombinant human enzyme (Homo sapiens, UniProt P15144); assay: Neutral aminopeptidase (APN) assay, substrate L-Ala-β-NA; format: biochemical; details: APN-rh 50 ng/mL, substrate 50 μM, 50 mM Tris pH 7.4, 37° C.; read-out: APN (nM), inhibitory power Ki
T2 construct: purchased R&D System
T2 sequence (P15144 whole entry): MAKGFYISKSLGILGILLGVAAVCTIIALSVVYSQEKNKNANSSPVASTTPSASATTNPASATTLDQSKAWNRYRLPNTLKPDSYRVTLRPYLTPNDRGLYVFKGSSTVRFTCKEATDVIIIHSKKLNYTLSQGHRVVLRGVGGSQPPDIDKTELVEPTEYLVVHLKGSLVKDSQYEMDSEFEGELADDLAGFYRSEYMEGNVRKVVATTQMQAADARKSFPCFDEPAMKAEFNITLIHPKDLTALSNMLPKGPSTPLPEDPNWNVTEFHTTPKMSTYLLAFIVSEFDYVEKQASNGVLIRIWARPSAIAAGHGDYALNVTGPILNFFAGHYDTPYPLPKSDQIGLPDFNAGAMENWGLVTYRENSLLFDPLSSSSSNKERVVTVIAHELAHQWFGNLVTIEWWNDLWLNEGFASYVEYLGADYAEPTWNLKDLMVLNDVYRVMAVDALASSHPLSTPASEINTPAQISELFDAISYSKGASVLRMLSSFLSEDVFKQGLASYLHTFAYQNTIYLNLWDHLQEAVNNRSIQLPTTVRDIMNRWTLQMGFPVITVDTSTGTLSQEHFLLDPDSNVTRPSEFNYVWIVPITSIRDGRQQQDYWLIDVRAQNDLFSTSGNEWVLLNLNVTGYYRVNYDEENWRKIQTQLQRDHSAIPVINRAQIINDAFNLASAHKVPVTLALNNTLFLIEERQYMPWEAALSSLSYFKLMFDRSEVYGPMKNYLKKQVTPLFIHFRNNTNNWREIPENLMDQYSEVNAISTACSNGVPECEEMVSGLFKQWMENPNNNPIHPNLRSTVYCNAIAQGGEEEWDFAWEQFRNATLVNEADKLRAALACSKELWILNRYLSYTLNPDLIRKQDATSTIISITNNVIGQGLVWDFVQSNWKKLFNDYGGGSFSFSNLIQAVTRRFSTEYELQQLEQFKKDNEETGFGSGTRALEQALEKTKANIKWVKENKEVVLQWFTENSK
Procedure: as §1, §2, §3
The measurement of the inhibition of aminopeptidase N (APN) is carried out by use of the substrate L-Ala↓β-NA (50 μM, Sigma Aldrich). The inhibitory powers are determined by using recombinant human enzyme (rh) (50 ng/mL; R&D System). Increasing concentrations (from 10^−10 to 10^−3 M) of inhibitors are pre-incubated for 30 min at 37° C. with APN-rh in 50 mM Tris buffer, pH 7.4. The substrate is next added and the incubation is continued for 30 min at 37° C. The reaction is stopped by placing the plate in ice for 10 min. The reading of the emitted fluorescence is measured in a fluorimeter at λex=340 nm, λem=405 nm.

LTA4H = target: T3, LTA4H (Homo sapiens, UniProt P09960); assay: LTA4 hydrolase assay, substrate (L)-Ala-β-naphthylamide; format: biochemical; details: recombinant enzyme 0.6 μg/mL, substrate 1 mM, 50 mM Tris HCl pH 7.4, 100 mM NaCl, 37° C.; read-out: LTA4H (nM), inhibitory power Ki
T3 sequence (P09960 1-611): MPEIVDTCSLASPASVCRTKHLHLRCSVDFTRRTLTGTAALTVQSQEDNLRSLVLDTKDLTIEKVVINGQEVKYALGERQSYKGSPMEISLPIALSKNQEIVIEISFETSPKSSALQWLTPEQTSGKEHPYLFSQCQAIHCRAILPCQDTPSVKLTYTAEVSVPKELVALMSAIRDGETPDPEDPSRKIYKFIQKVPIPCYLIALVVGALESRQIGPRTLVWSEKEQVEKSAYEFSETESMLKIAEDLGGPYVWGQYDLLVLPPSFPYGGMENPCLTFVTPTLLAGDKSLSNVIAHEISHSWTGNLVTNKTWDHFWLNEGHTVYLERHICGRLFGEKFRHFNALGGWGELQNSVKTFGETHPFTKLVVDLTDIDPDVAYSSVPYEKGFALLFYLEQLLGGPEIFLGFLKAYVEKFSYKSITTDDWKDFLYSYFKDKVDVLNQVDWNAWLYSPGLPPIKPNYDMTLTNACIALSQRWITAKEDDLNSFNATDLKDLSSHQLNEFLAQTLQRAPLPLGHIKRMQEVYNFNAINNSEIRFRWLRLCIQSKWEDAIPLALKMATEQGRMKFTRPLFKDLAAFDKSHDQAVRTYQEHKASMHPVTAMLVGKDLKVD
Procedure: as §1, §2, §3
To determine the Ki values of the different inhibitors with regard to LTA4H, 0.6 μg/mL of recombinant enzyme were incubated beforehand for 30 minutes at 37° C. in 50 mM Tris HCl, pH 7.4, 100 mM NaCl, with increasing concentrations of inhibitor (from 10^−10 M to 10^−4 M of final concentration). The fluorescent substrate (L)-Ala-β-naphthylamide (1 mM) is added in a final volume of 100 μL and is incubated at 37° C. for 15 minutes. The fluorescence values are measured on a Berthold Twinkle LB 970 (λex=340 nm, λem=405 nm, energy of the lamp 10000). Samples containing 0% hydrolysis were obtained by adding the substrate to the buffer and samples having a relative activity of 100% were prepared without inhibitor. The percentage cleavage was evaluated and compared with a relative activity of 100%, and the IC50 values were determined as a consequence. The Ki values of the inhibitors (average of at least three double independent assays) were calculated using the equation Ki=IC50/(1+[S]/Km).

male OF1 mice = assay: Hot plate test on mice, intravenous administration; format: in vivo; details: for analgesic response: mice

| SMILES | Ki [1] [nM] | Ki [2] [nM] | Ki (LTA4H) [nM] | analgesic response (male OF1 mice; Ib-1 10 mg/kg in association with THC 0.375 mg/kg, intravenous coadministration) [%] | analgesic response (male OF1 mice; compound Ib-1 alone, 10 mg/kg intravenous, vehicle EtOH/Tween 80/Water (1/1/8)) [%] | analgesic effect of the association (in words) (male OF1 mice; intravenous association of THC and Ib-1 at inactive doses, 10 min after injection, male OF1 mice) | analgesic response (male OF1 mice; THC alone, 0.375 mg/kg intravenous) [%] |
| --- | --- | --- | --- | --- | --- | --- | --- |
| C[C@H](NC(=O)[C@H](Cc1ccc(-c2ccccc2)cc1)CN(O)C=O)C(=O)O | 0.08 ± 0.01 | 86 ± 8 | 6.1 ± 0.7 | – | – | – | – |
| C[C@H](NC(=O)[C@@H](Cc1ccc(-c2ccccc2)cc1)CN(O)C=O)C(=O)O | 44.1 ± 2.2 | 817 ± 80 | > 10000 | – | – | – | – |
| C[C@H](NC(=O)[C@H](Cc1ccccc1)CN(O)C=O)C(=O)O [Ia-1, (S)-2-((R)-2-benzyl-3-(N-hydroxyformamido)propanamido) propanoic Acid] | 3.3 ± 0.7 | 143 ± 9 | 7.5 ± 0.4 | – | – | – | – |
| C[C@H](NC(=O)[C@@H](Cc1ccccc1)CN(O)C=O)C(=O)O [Ia-2, (S)-2-((S)-2-benzyl-3-(N-hydroxyformamido)propanamido) propanoic Acid] | 17.7 ± 0.9 | > 10000 | – | – | – | – | – |
| O=CN(O)C[C@@H](Cc1ccccc1)C(=O)N[C@@H](Cc1ccccc1)C(=O)O [Ib-1, (S)-2-((R)-2-benzyl-3-(N-hydroxyformamido)propanamido)-3-phenylpropanoic Acid] | 0.5 ± 0.1 | 24 ± 0.4 | 26 ± 2 | 65 | 10 | considerable synergic analgesic effect | – |
| O=CN(O)C[C@H](Cc1ccccc1)C(=O)N[C@@H](Cc1ccccc1)C(=O)O [Ib-2, (S)-2-((S)-2-benzyl-3-(N-hydroxyformamido)propanamido)-3-phenylpropanoic Acid] | 23.1 ± 1.1 | > 10000 | – | – | – | – | – |
| O=CN(O)C[C@@H](Cc1ccccc1)C(=O)N[C@H](CC(=O)O)Cc1ccccc1 [Ic-1, (S)-3-((R)-2-benzyl-3-(N-hydroxyformamido)propanamido)-4-phenyl butanoic Acid] | 6.3 ± 0.3 | 12 ± 1.7 | 443 ± 75 | – | – | – | – |
| CCCCCc1cc(O)c2c(c1)OC(C)(C)[C@@H]1CCC(C)=C[C@@H]21 [THC, reference compound] | – | – | – | – | – | – | 12 |
